Source: patent US20110092544A1, “FUNGICIDAL PYRIDINES” (E.I. DU PONT DE nemours and company, priority 2008, published 2011)

Legend:
Format in all cases: in vivo
[1] = test system: Erysiphe graminis f. sp. tritici; assay: Test A: wheat powdery mildew, preventive spray on wheat seedlings, visual disease rating
From the text: (§1) General protocol for preparing test suspensions for Tests A-H: The test compounds were first dissolved in acetone in an amount equal to 3% of the final volume and then suspended at the desired concentration (in ppm) in acetone and purified water (50/50 mix) containing 250 ppm of the surfactant Trem® 014 (polyhydric alcohol esters). The resulting test suspensions were then used in tests A-H. Spraying a 200 ppm test suspension to the point of run-off on the test plants was the equivalent of a rate of 500 g/ha.
The test suspension was sprayed to the point of run-off on wheat seedlings. The following day the seedlings were inoculated with a spore dust of Erysiphe graminis f. sp. tritici (the causal agent of wheat powdery mildew) and incubated in a growth chamber at 20° C. for 8 days, after which time disease ratings were visually made.
(§2) Results for Tests A-H are given in Table A. In the table, a rating of 100 indicates 100% disease control and a rating of 0 indicates no disease control (relative to the controls). A dash (-) indicates no test results. All results are for compounds tested at 200 ppm except where the compound number is followed by “*” which indicates the compound was tested at 40 ppm.

[2] = test system: Puccinia recondite f. sp. tritici; assay: Test B: wheat leaf rust, preventive spray on wheat seedlings, visual disease rating
From the text: as §1
(§3) The test suspension was sprayed to the point of run-off on wheat seedlings. The following day the seedlings were inoculated with a spore suspension of Puccinia recondite f. sp. tritici (the causal agent of wheat leaf rust) and incubated in a saturated atmosphere at 20° C. for 24 h, and then moved to a growth chamber at 20° C. for 7 days, after which time disease ratings were visually made.
as §2

Septoria tritici = assay: Test C: wheat leaf blotch, preventive spray on wheat seedlings, visual disease rating
From the text: as §1
as §3, with “Septoria” for “Puccinia recondite f. sp.”, “blotch)” for “rust)”, “48” for “24”, “and” for “and then”, “19 additional” for “7”
as §2

Septoria nodorum = assay: Test D: wheat glume blotch, preventive spray on wheat seedlings, visual disease rating
From the text: as §1
as §3, with “Septoria nodorum” for “Puccinia recondite f. sp. tritici”, “glume blotch)” for “leaf rust)”, “48” for “24”
as §2

Alternaria solani = assay: Test E: tomato early blight, preventive spray on tomato seedlings, visual disease rating
From the text: as §1
(§4) The test suspension was sprayed to the point of run-off on tomato seedlings. The following day the seedlings were inoculated with a spore suspension of Alternaria solani (the causal agent of tomato early blight) and incubated in a saturated atmosphere at 27° C. for 48 h, and then moved to a growth chamber at 20° C. for 5 days, after which time disease ratings were visually made.
as §2

Botrytis cinerea = assay: Test F: tomato botrytis, preventive spray on tomato seedlings, visual disease rating
From the text: as §1
as §4, with “Botrytis cinerea” for “Alternaria solani”, “botrytis)” for “early blight)”, “in” for “in a”, “20°” for “27°”, “24°” for “20°”, “3 additional” for “5”
as §2

[3] = 40 ppm (compound number followed by *)
[4] = 200 ppm, 100 = 100% disease control, 0 = no control

COc1cc(OC)cc(-c2c(-c3cnc(OC)nc3OC)cnc(C)c2-c2c(F)cc(F)cc2F)c1 [Compound 131]
Test A rating (% disease control) [1, 3]: 0%
Test B rating (% disease control) [2, 3]: 9%
Test C rating (% disease control) (Septoria tritici; [3]): 0%
Test D rating (% disease control) (Septoria nodorum; [3]): 0%
Test E rating (% disease control) (Alternaria solani; [3]): 0%
Test F rating (% disease control) (Botrytis cinerea; [3]): 80%

COc1cc(OC)cc(-c2c(-c3c(F)cccc3F)cnc(C#N)c2-c2c(F)cccc2F)c1 [Compound 81]
Test A rating (% disease control) [1, 4]: 78%
Test B rating (% disease control) [2, 4]: 96%
Test C rating (% disease control) (Septoria tritici; [4]): 93%
Test D rating (% disease control) (Septoria nodorum; [4]): 0%
Test E rating (% disease control) (Alternaria solani; [4]): 98%
Test F rating (% disease control) (Botrytis cinerea; [4]): 46%

CCOC(=O)c1cnc(C)c(-c2ccc(OC)cc2)c1-c1cc(OC)cc(OC)c1 [Compound 60]
Test A rating (% disease control) [1, 4]: 59%
Test B rating (% disease control) [2, 4]: 59%
Test C rating (% disease control) (Septoria tritici; [4]): 68%
Test D rating (% disease control) (Septoria nodorum; [4]): 0%
Test E rating (% disease control) (Alternaria solani; [4]): 0%
Test F rating (% disease control) (Botrytis cinerea; [4]): 99%

COc1cc(OC)cc(-c2c(C3CCSCC3)cnc(C)c2-c2ccc(F)cc2)c1 [Compound 84]
Test A rating (% disease control) [1, 3]: 96%
Test B rating (% disease control) [2, 3]: 98%
Test C rating (% disease control) (Septoria tritici; [3]): 96%
Test D rating (% disease control) (Septoria nodorum; [3]): 0%
Test E rating (% disease control) (Alternaria solani; [3]): 0%
Test F rating (% disease control) (Botrytis cinerea; [3]): 49%

COc1cc(OC)cc(-c2c(-c3cccs3)cnc(C)c2-c2c(F)cc(F)cc2F)c1 [Compound 132]
Test A rating (% disease control) [1, 3]: 90%
Test B rating (% disease control) [2, 3]: 99%
Test C rating (% disease control) (Septoria tritici; [3]): 99%
Test D rating (% disease control) (Septoria nodorum; [3]): 97%
Test E rating (% disease control) (Alternaria solani; [3]): 93%
Test F rating (% disease control) (Botrytis cinerea; [3]): 99%

COc1cc(OC)cc(-c2c(-c3ccc(F)cc3)cnc(C)c2-c2c(F)cc(F)cc2F)c1 [Compound 93]
Test A rating (% disease control) [1, 3]: 96%
Test B rating (% disease control) [2, 3]: 91%
Test C rating (% disease control) (Septoria tritici; [3]): 93%
Test D rating (% disease control) (Septoria nodorum; [3]): 0%
Test E rating (% disease control) (Alternaria solani; [3]): 21%
Test F rating (% disease control) (Botrytis cinerea; [3]): 98%

C=C(C)c1cnc(CC)c(-c2ccccc2)c1-c1cc(OC)cc(OC)c1 [Compound 29]
Test A rating (% disease control) [1, 3]: 91%
Test B rating (% disease control) [2, 3]: 0%
Test C rating (% disease control) (Septoria tritici; [3]): 98%
Test D rating (% disease control) (Septoria nodorum; [3]): 0%
Test E rating (% disease control) (Alternaria solani; [3]): 91%
Test F rating (% disease control) (Botrytis cinerea; [3]): 80%

COc1cc(OC)c(Cl)c(-c2c(CCl)cnc(C)c2-c2c(F)cc(F)cc2F)c1 [Compound 134]
Test A rating (% disease control) [1, 3]: 99%
Test B rating (% disease control) [2, 3]: 100%
Test C rating (% disease control) (Septoria tritici; [3]): 99%
Test D rating (% disease control) (Septoria nodorum; [3]): 92%
Test E rating (% disease control) (Alternaria solani; [3]): 96%
Test F rating (% disease control) (Botrytis cinerea; [3]): 100%

COc1cc(OC)cc(-c2c(Cn3cccn3)cnc(C)c2-c2c(F)cc(F)cc2F)c1 [Compound 97]
Test A rating (% disease control) [1, 4]: 100%
Test B rating (% disease control) [2, 4]: 100%
Test C rating (% disease control) (Septoria tritici; [4]): 95%
Test D rating (% disease control) (Septoria nodorum; [4]): 100%
Test E rating (% disease control) (Alternaria solani; [4]): 100%
Test F rating (% disease control) (Botrytis cinerea; [4]): 99%

COc1cc(OC)c(Cl)c(-c2c(C(C)(C)O)cnc(C)c2-c2c(F)cc(F)cc2F)c1 [Compound 119]
Test A rating (% disease control) [1, 3]: 99%
Test B rating (% disease control) [2, 3]: 100%
Test C rating (% disease control) (Septoria tritici; [3]): 98%
Test D rating (% disease control) (Septoria nodorum; [3]): 98%
Test E rating (% disease control) (Alternaria solani; [3]): 100%
Test F rating (% disease control) (Botrytis cinerea; [3]): 100%

COc1cc(OC)cc(-c2c(C=O)cnc(C)c2-c2c(F)cc(F)cc2F)c1 [Compound 112]
Test A rating (% disease control) [1, 3]: 96%
Test B rating (% disease control) [2, 3]: 80%
Test C rating (% disease control) (Septoria tritici; [3]): 93%
Test D rating (% disease control) (Septoria nodorum; [3]): 0%
Test E rating (% disease control) (Alternaria solani; [3]): 9%
Test F rating (% disease control) (Botrytis cinerea; [3]): 96%
